According to patent publication US20030186352A1, “Apicomplexan chorismate synthase sequences and an inhibitor of the shikimate pathway” (priority 1998, published 2003):
pIC50: −log10 of the molar value. ≈ marks a conversion by molar mass, not a printed value. Like-named read-outs stand apart in the source and are kept apart here.

Experiments:
T. gondii tachyzoites = experiment: TSA-DCA experiments: T. gondii growth in fibroblasts (3H uracil uptake, visual appearance); format: cell-based, Toxoplasma gondii
Description: (§1) Effects of inhibitors of T. gondii in vitro were assessed after 1, 4 or 5 days in tissue culture using fibroblasts infected with […] tachyzoites of T. gondii. Effects in the fibroblasts were scored. Compounds used were TSA-DCA, TSA-Na+, and DCA at various concentrations ranging up to 1 mM. Uptake of ^3H uracil (utilized by T. gondii but not by mammalian cells), and visual appearance of T. gondii in these cells were used to assess parasite growth. Effect of compounds on host cells was studied by microscopic examination and by measuring uptake of tritiated thymidine utilizing a non-confluent monolayer of fibroblasts.
(§2) The results in table 5 show the greatest inhibitory effect of TSA-DCA and some effect of DCA at a higher concentration. […] “T50” is the concentration at which 50% of the cells were killed (T=toxic) and so forth. […] Analysis was uptake of H3 thymidine. Confirmation was by visual inspection of microscope slides (e.g. FIGS. 15 A-D).

fibroblasts = experiment: TSA-DCA experiments: effect on host cells (tritiated thymidine uptake, non-confluent fibroblasts); format: cell-based, human
Description: as §1, §2

C. parvum = C. parvum infection of MDBKF5D2 cell monolayers, immunofluorescence assay at 48 hours; format: cell-based, Cryptosporidium parvum
Description: C. parvum oocysts at 50,000/well were incubated at 37° C. (8% CO2) on confluent MDBKF5D2 cell monolayers in 96 well microtiter plates with the following concentrations of each drug. […] The level of infection of each well was determined and analyzed by an immunofluorescence assay at 48 hours using an antibody to C. parvum sporozoites made in rabbits at a concentration of 0.1%. Fluorescein-conjugated goat anti-rabbit antibody was used at a concentration of 1%.
C. parvum oocysts at 50,000/well were incubated with each drug (PRM=paromomycin which is the positive control, NPMG, gabaculine, SHAM, 8-hydroxyquinoline) at 37° C. (8% carbon dioxide) on confluent MDBKF5D2 cell monolayers in 96 well microtiter plates. The level of infection of each well was determined and analyzed by an immunofluorescence assay at 48 hours using as an antibody C. parvum sporozoite rabbit anti-serum (0.1%), and using fluorescein-conjugated goat anti-rabbit antibody (1%). Data are expressed as mean parasite count/field when 16 fields counted at 10× magnification “s.d. of the mean” (FIG. 6).

[1] = tested on: T. gondii tachyzoites (RH strain); experiment: T. gondii growth inhibition in HFF monolayers, tritiated uracil uptake; format: cell-based, Toxoplasma gondii
Description: The improvements are based on microscopic visual imspection of infected and inhibitor treated cultures, and on quantitation of nucleic acid synthesis of the parasite by measure intake of ^3H uracil onto the parasite's nucleic acid. Uracil is not utilized by mammalian cells. […] Only the RH strain tachyzoites, cultured for up to 72 hours, had been used in previously reported assays. The use of Me49, Ptg, and R5 mutant are unique aspects of the methods used in these assays in this invention.
In these assays toxicity of a candidate inhibitor was assessed by its ability to prevent growth of human foreskin fibroblasts (HFF) after 4 days and after 8 days as measured by tritiated thymidine uptake and microscopic evaluation. Confluent monolayers of HFF were infected with tachyzoites and bradyzoites. Inhibitor was added one hour later. Non-toxic doses were used in parasite growth inhibition assays. Parasite growth was measured by ability to incorporate tritiated uracil during the last 18 hours of culture.
First the toxicity of gabaculine was assessed by its ability to prevent growth of human foreskin fibroblasts (HFF) as measured by ^3H-thymidine uptake and microscopic evaluation. Non-toxic doses were used in parasite growth inhibition assays. in vitro parasite growth inhibition assays included confluent monolayers of HFF infected with tachyzoites (RH) or mutant Me49 (R5). Gabaculine was added 1 hour later. Parasite growth was measured by the ability to incorporate 3H-uracil during the last 18 hours of culture. In addition, parasite growth was evaluated microscopically in Giemsa stained slides.
Confluent monolayers of HFF cells, grown in 96-well plates are infected with T. gondii tachyzoites of the RH strain and serial dilutions of anti-microbial compound are applied 1 hour later. T. gondii growth is assessed in these cultures by their ability to incorporate tritiated uracil (2.5 μCi/well) added during the last 18 hours of culture. After harvesting cells with an automatic cell harvester, uracil incorporation is measured by liquid scintillation.

[2] = tested on: D6 clone of Plasmodium falciparum; experiment: P. falciparum in vitro growth assay (Milhous et al.), D6 clone; format: cell-based; settings: for IC50 / IC90: Plasmodium falciparum
[3] = tested on: W2 clone of Plasmodium falciparum; experiment: P. falciparum in vitro growth assay (Milhous et al.), W2 clone; format: cell-based; settings: for IC50 / IC90: Plasmodium falciparum
T. gondii = T. gondii infection in mice: manifestations, parasitemia, brain cysts; design: species or system Toxoplasma gondii
Description: Cyst numbers present in a suspension of brain are enumerated, or cyst numbers in formalin fixed paraffin embedded sections are quantitated.
In this competitive PCR method the T. gondii B1 gene is amplified by PCR in the presence of a construct which produces a product slightly smaller than the wild type B1 gene. The amount of construct can be quantitated to semiquantitate the amount of the competing wild type gene.
A method to measure the amount of parasitemia in mouse peripheral blood has been developed. Briefly, the target for PCR amplification is the 35 fold repetitive B1 gene of T. gondii and the amplification was performed using primers previously reported. […] Competitive PCR was performed by spiking individual reactions (containing equal amounts of genomic DNA) with a dilution of the internal standard. Since this internal control contains the same primer template sequences, it competes with the B1 gene of T. gondii for primer binding and amplification. The sensitivity of the PCR reaction in each sample can be monitored. Following competitive PCR, the PCR products are distinguished by size and the amount of products generated by the target and internal standard can be compared on a gel. The amount of competitor DNA yielding equal amounts of products gives the initial amount of target gene.

[4] = exp. 5/15, day 4, range 12-100 (200) uM, no visual
[5] = exp. 5/29, day 4, range 125-1000 (2000) uM, no visual
[6] = exp. 8/23, day 1, range 250-2000 uM
[7] = D6 clone (second value of each pair), read-out: Concentrations of other compounds that inhibited these clones in this assay
[8] = W2 clone (first value of each pair), read-out: Concentrations of other compounds that inhibited these clones in this assay
[9] = D6 clone (second value of each pair)
[10] = W2 clone (first value of each pair)

SMILES: C1CCC(NC2CCCCC2)CC1 [DCA, dicyclohexylamine]
- pIC50 (T. gondii tachyzoites; Toxoplasma gondii, Fibroblast, 24 h): 3.30
- IC75 (T. gondii tachyzoites; day 1 of culture): 1 mM
- IC7 5-80 (T. gondii tachyzoites; [4]): none
- IC50 (T. gondii tachyzoites; [4]): none
- IC7 5-80 (T. gondii tachyzoites; [5]): none
- IC50 (T. gondii tachyzoites; [5]): none
- IC7 5-80 (T. gondii tachyzoites; [6]): 250 to 500 µM
- IC7 5-80 (T. gondii tachyzoites; exp. 9/8, day 1, range 125-1000 uM): 1000 µM
- T50 (fibroblasts; [4]): 50 µM
- T90 (fibroblasts; [4]): none
- T50 (fibroblasts; [5]): none
- T90 (fibroblasts; [5]): 2000 µM
- T50 (fibroblasts; [6]): 1000 µM
- T90 (fibroblasts; [6]): none

SMILES: O=C(O)CC[N+](=O)[O-] [3-NPA, 3-Nitropropionic acid]
- inhibition of C. parvum (C. parvum): inhibited
- restriction of CPM (tritiated uracil incorporation) ([1]; 3-NPA 0.006 mg ml, 4-day assay, medium about 30,000 CPM): around 60%
- IC50 ([2]; D6): 2820 ng/mL (≈ 23.7 µM)
- IC90 ([2]; D6): 2.82 µg/mL (≈ 23.7 µM)
- IC50 ([3]; W2): 3.3 µg/mL (≈ 27.7 µM)
- IC90 ([3]; W2): 4.61 µg/mL (≈ 38.7 µM)

SMILES: Oc1cccc2cccnc12 [8-OH-quinoline, 8-hydroxyquinoline]
- approximate 95% Cl count (mean parasite count per field) (C. parvum; 8-OH-quinoline 0.1 μg/ml, media alone ~1800): ~1300 count/field
- approximate 95% Cl count (mean parasite count per field) (C. parvum; 8-OH-quinoline 1 μg/ml, media alone ~1800): ~1100 count/field
- approximate 95% Cl count (mean parasite count per field) (C. parvum; 8-OH-quinoline 10 μg/ml, media alone ~1800): ~900 count/field
- approximate 95% Cl count (mean parasite count per field) (C. parvum; 8-OH-quinoline 100 μg/ml, media alone ~1800): ~300 count/field
- effect against T. gondii [1]: effective against T. gondii
- IC50 ([2]; D6): 1200 ng/mL (≈ 8.29 µM)
- IC90 ([2]; D6): 1.88 µg/mL (≈ 13 µM)
- IC50 ([3]; W2): 1.63 µg/mL (≈ 11.2 µM)
- IC90 ([3]; W2): 4.52 µg/mL (≈ 31.1 µM)

SMILES: CCc1nc(N)nc(N)c1-c1ccc(Cl)cc1 [Pyrimethamine]
- IC50 [2, 7]: 0.05 ng/mL (≈ 0.000201 µM)
- IC50 [3, 8]: 0.0821 µg/mL (≈ 0.33 µM)

SMILES: CCCCN(CCCC)CCC(O)c1cc2c(Cl)cc(Cl)cc2c2cc(C(F)(F)F)ccc12 (stereo not drawn) [HAL]
- Concentrations of other compounds that inhibited these clones in this assay [2, 9]: 0.51 ng/mL
- Concentrations of other compounds that inhibited these clones in this assay [3, 10]: 0.33 ng/mL

SMILES: O=C(NO)c1ccccc1O [SHAM, Salicylhydroxamic acid]
- parasitemia and number of brain cysts in vivo (T. gondii): affects parasitemia and number of brain cysts
- approximate 95% Cl count (mean parasite count per field) (C. parvum; SHAM 0.1 μg/ml, 0.2% ETOH, media and ethanol ~1200): ~1200 count/field
- approximate 95% Cl count (mean parasite count per field) (C. parvum; SHAM 1 μg/ml, 0.2% ETOH, media and ethanol ~1200): ~1100 count/field
- approximate 95% Cl count (mean parasite count per field) (C. parvum; SHAM 10 μg/ml, 0.2% ETOH, media and ethanol ~1200): ~1100 count/field
- approximate 95% Cl count (mean parasite count per field) (C. parvum; SHAM 100 μg/ml, 0.2% ETOH, media and ethanol ~1200): ~400 count/field
- effect against T. gondii [1]: effective against T. gondii
- restriction of CPM (tritiated uracil incorporation) ([1]; SHAM 0.16 μg/ml, 4 day assay, medium around 54,000 CPM): around 50%
- counts (tritiated uracil incorporation) ([1]; SHAM 0.78 μg/ml, 4 days, medium around 54,000, no RH around 1,000 CPM): about 8,000 CPM

SMILES: O=C1C(O)=C([C@H]2CC[C@H](c3ccc(Cl)cc3)CC2)C(=O)c2ccccc21 [Atovaquovone]
- Concentrations of other compounds that inhibited these clones in this assay [2, 9]: 0.12 ng/mL
- Concentrations of other compounds that inhibited these clones in this assay [3, 10]: 0.13 ng/mL

SMILES: CCN(CC)CCCC(C)Nc1ccnc2cc(Cl)ccc12 (stereo not drawn) [Chloroquin]
- Concentrations of other compounds that inhibited these clones in this assay [2, 9]: 2.88 ng/mL
- Concentrations of other compounds that inhibited these clones in this assay [3, 10]: 40.86 ng/mL

SMILES: C=C[C@H]1C[N@@]2CC[C@H]1C[C@H]2[C@H](O)c1ccnc2ccc(OC)cc12 [Quinine]
- IC50 [2, 7]: 4.41 ng/mL (≈ 0.0136 µM)
- IC50 [3, 8]: 0.0386 µg/mL (≈ 0.119 µM)

SMILES: Nc1ccc(S(=O)(=O)Nc2ncccn2)cc1 [Sulfadiazine]
- manifestations of infection in vivo (T. gondii): reduced manifestations of infection
- reduction of growth of T. gondii ([1]; sulphadiazine 1.56 μmg/ml, 4 days, medium about 36,000 CPM): about 60%

SMILES: NC[C@@H]1O[C@H](O[C@H]2[C@@H](O)[C@H](O[C@@H]3[C@@H](O)[C@H](N)C[C@H](N)[C@H]3O[C@H]3O[C@H](CO)[C@@H](O)[C@H](O)[C@H]3N)O[C@@H]2CO)[C@H](N)[C@@H](O)[C@@H]1O [PRM]
- approximate 95% Cl count (mean parasite count per field) (C. parvum; paromomycin with ethanol (positive control), media and ethanol ~1200): ~100 count/field
- approximate 95% Cl count (mean parasite count per field) (C. parvum; paromomycin without ethanol (positive control), media alone ~1800): ~200 count/field
